This is an account of results in patent publication US20150231080A1, “PHARMACEUTICAL COMPOSITION COMPRISING AN ATYPICAL ANTIPSYCHOTIC AGENT AND METHOD FOR THE PREPARATION THEREOF” (PHARMATHEN S.A., priority 2012, published 2015).

For data set [1] the following is noted: blends, accelerated storage conditions.
The conditions of data set [2]: fumarate salt, crystalline powder; cited from earlier work.

For `OCCOCCN1CCN(C2=Nc3ccccc3Sc3ccccc32)CC1` [Quetiapine, 11-[4-[2-(2-hydroxyethoxy)ethyl]-1-piperazinyl]dibenzo[b,f][1,4]thiazepine], the “compatibility with tartaric acid” value in data set [1] was “significant compatibility problems”. Further, the solubility in water entry in data set [2] was “moderately soluble in water”.
